Results as given in the supplement of paper PMC10307832.

Legend:
Assay in all cases: relative viability (nuclei count vs DMSO), 5 days (fraction); higher = more cells survive
Doxorubicin + Decitabine = compound: COc1cccc2c1C(=O)c1c(O)c3c(c(O)c1C2=O)C[C@@](O)(C(=O)CO)C[C@@H]3O[C@H]1C[C@H](N)[C@H](O)[C@H](C)O1 [Doxorubicin] + Nc1ncn([C@H]2C[C@H](O)[C@@H](CO)O2)c(=O)n1 [Decitabine] (partner 2 µM)
Method in brief: (§1)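 Relative viability equals treated-well nuclei counts divided by vehicle-well nuclei counts. Counts came from 4× images of lung cancer cell lines grown in 1536-well plates for 5 days after pin-tool dosing on the day after seeding. Dosing used one drug alone or a fixed anchor-drug dose plus five library-drug doses (not always all listed) in √10 steps, and values are medians of duplicate plates.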

BAY61-3606 + Vorinostat = compound: COC1=C(C=C(C=C1)C2=CC3=NC=CN3C(=N2)NC4=C(C=CC=N4)C(=O)N)OC [BAY61-3606] + O=C(CCCCCCC(=O)Nc1ccccc1)NO [Vorinostat] (partner 1 µM)
Method in brief: as §1

Doxorubicin + Vorinostat = compound: COc1cccc2c1C(=O)c1c(O)c3c(c(O)c1C2=O)C[C@@](O)(C(=O)CO)C[C@@H]3O[C@H]1C[C@H](N)[C@H](O)[C@H](C)O1 [Doxorubicin] + O=C(CCCCCCC(=O)Nc1ccccc1)NO [Vorinostat] (partner 1 µM)
Method in brief: as §1

Doxorubicin + Dasatinib = compound: COc1cccc2c1C(=O)c1c(O)c3c(c(O)c1C2=O)C[C@@](O)(C(=O)CO)C[C@@H]3O[C@H]1C[C@H](N)[C@H](O)[C@H](C)O1 [Doxorubicin] + Cc1nc(Nc2ncc(C(=O)Nc3c(C)cccc3Cl)s2)cc(N2CCN(CCO)CC2)n1 [Dasatinib] (partner 0.075 µM)
Method in brief: as §1

Cell Line | relative viability (Doxorubicin + Decitabine; first compound 0.001 µM) | relative viability (Doxorubicin + Decitabine; first compound 0.003162 µM) | relative viability (Doxorubicin + Decitabine; first compound 0.01 µM) | relative viability (Doxorubicin + Decitabine; first compound 0.03162 µM) | relative viability (Doxorubicin + Decitabine; first compound 0.1 µM) | relative viability (BAY61-3606 + Vorinostat; first compound 0.02 µM) | relative viability (BAY61-3606 + Vorinostat; first compound 0.06325 µM) | relative viability (BAY61-3606 + Vorinostat; first compound 0.2 µM) | relative viability (BAY61-3606 + Vorinostat; first compound 2 µM) | relative viability (Doxorubicin + Vorinostat; first compound 0.001 µM) | relative viability (Doxorubicin + Vorinostat; first compound 0.003162 µM) | relative viability (Doxorubicin + Vorinostat; first compound 0.01 µM) | relative viability (Doxorubicin + Vorinostat; first compound 0.03162 µM) | relative viability (Doxorubicin + Vorinostat; first compound 0.1 µM) | relative viability (BAY61-3606 + Vorinostat; first compound 0.6325 µM) | relative viability (Doxorubicin + Dasatinib; first compound 0.003162 µM) | relative viability (Doxorubicin + Dasatinib; first compound 0.01 µM) | relative viability (Doxorubicin + Dasatinib; first compound 0.03162 µM) | relative viability (Doxorubicin + Dasatinib; first compound 0.1 µM) | relative viability (Doxorubicin + Dasatinib; first compound 0.001 µM)
NCI-H1648 | 0.604 | 0.451 | 0.599 | 0.421 | 0.495 | 0.797 | 0.44 | 0.648 | 0.706 | 0.421 | 0.376 | 0.468 | 0.285 | 0.467 | – | – | – | – | – | –
NCI-H1793 | – | 0.482 | 0.501 | 0.403 | 0.456 | 0.842 | 0.83 | 0.684 | 0.989 | – | 0.867 | 0.728 | 0.659 | 0.731 | 1.04 | 0.511 | 0.374 | 0.33 | 0.413 | –
SK-LU-1 | 0.68 | 0.745 | 0.554 | 0.445 | 0.473 | 0.695 | 0.83 | 0.755 | 0.504 | 0.719 | 0.87 | 0.674 | 0.494 | 0.461 | 0.679 | 0.193 | 0.166 | 0.124 | 0.116 | 0.158
HCC-44 | 1.01 | 1.01 | 0.902 | 0.964 | 0.977 | 1.05 | 1.05 | 1 | 1.26 | 1.1 | 1.15 | 1.1 | 1.12 | 1.12 | 0.966 | – | – | – | – | –
201T | 0.899 | 0.879 | 0.824 | 0.835 | 0.804 | 1.02 | 0.962 | 1.05 | 1.06 | 0.892 | 0.996 | 0.96 | 1.06 | 0.942 | 1.09 | 0.636 | 0.561 | 0.583 | 0.546 | 0.537
HOP-62 | 0.217 | 0.249 | 0.187 | 0.228 | 0.206 | – | 0.544 | 0.538 | 0.397 | 0.515 | 0.605 | 0.599 | 0.538 | 0.572 | 0.667 | 0.737 | 0.601 | 0.628 | 0.552 | 0.68
NCI-H838 | 0.485 | 0.47 | 0.385 | 0.328 | 0.292 | 0.743 | 0.74 | 0.7 | 0.553 | 0.783 | 0.737 | 0.714 | 0.544 | 0.435 | 0.652 | 0.284 | 0.228 | 0.307 | 0.277 | 0.292
NCI-H2085 | 0.536 | 0.5 | 0.522 | 0.521 | 0.553 | 0.885 | 0.766 | 0.796 | 0.811 | 0.725 | 0.779 | 0.807 | 0.82 | 0.618 | 0.839 | 0.278 | 0.224 | 0.224 | 0.241 | 0.286
NCI-H661 | 0.561 | 0.568 | 0.506 | 0.426 | 0.337 | 0.78 | 0.825 | 0.773 | 0.779 | 0.737 | 0.82 | 0.695 | 0.577 | 0.495 | 0.864 | 0.846 | 0.786 | 0.412 | 0.316 | 0.829
NCI-H23 | 0.335 | 0.304 | 0.335 | 0.284 | 0.365 | 0.542 | 0.701 | 0.53 | 0.501 | 0.551 | 0.808 | 0.654 | 0.464 | 0.363 | 0.553 | 1.01 | 0.88 | 0.668 | 0.547 | –
A-427 | 0.585 | 0.625 | 0.553 | 0.456 | 0.4 | 0.991 | 0.869 | 0.876 | 0.888 | 0.913 | 0.884 | 0.847 | 0.647 | 0.351 | 0.875 | 0.743 | 0.621 | 0.721 | 0.673 | 0.745
NCI-H647 | 0.39 | 0.387 | 0.342 | 0.206 | 0.183 | 0.598 | 0.566 | 0.441 | 0.287 | 0.546 | 0.671 | 0.387 | 0.132 | 0.189 | 0.529 | 0.212 | 0.166 | 0.152 | 0.0503 | 0.186
NCI-H1734 | 0.491 | 0.494 | 0.478 | 0.462 | 0.513 | 0.826 | 0.804 | 0.651 | 0.441 | 0.737 | 0.815 | 0.747 | 0.558 | 0.536 | 0.769 | 0.572 | 0.385 | 0.317 | 0.255 | 0.517
NCI-H1915 | 0.265 | 0.263 | 0.283 | 0.259 | 0.271 | 0.515 | 0.528 | 0.478 | 0.483 | 0.521 | 0.57 | 0.532 | 0.5 | 0.527 | 0.511 | 0.355 | 0.308 | 0.302 | 0.324 | 0.281
NCI-H441 | 0.597 | 0.241 | 0.243 | 0.157 | 0.183 | 0.997 | 0.88 | 0.916 | 0.678 | 0.87 | 0.962 | 0.75 | 0.279 | 0.372 | 0.803 | 0.585 | 0.332 | 0.166 | 0.213 | –
HCC-366 | 0.334 | 0.35 | 0.281 | 0.309 | 0.334 | 0.383 | 0.385 | 0.175 | 0.244 | 0.279 | 0.403 | 0.306 | 0.211 | 0.122 | 0.345 | 0.757 | 0.614 | 0.238 | 0.212 | –
EMC-BAC-2 | 0.983 | 0.781 | 0.614 | 0.321 | 0.338 | 0.499 | 0.385 | 0.6 | 0.425 | 0.872 | 0.311 | 0.241 | 0.22 | 0.114 | 0.42 | 0.316 | 0.263 | 0.171 | 0.12 | 0.357
